Test results from ChEMBL document CHEMBL2346585, “Novel 1,3,4-oxadiazole thioether derivatives targeting thymidylate synthase as dual anticancer/antimicrobial agents” (Bioorg Med Chem, 2013).
pIC50: −log10 of the molar value. ≈ marks a conversion by molar mass, not a printed value.

Legend:
MCF7 = experiment: cells; settings: Homo sapiens, MCF7, 48 h
Description: Cytotoxicity against human MCF7 cells after 48 hrs by MTT assay

SGC-7901 = experiment: cells; settings: Homo sapiens, SGC-7901, 48 h
Description: Cytotoxicity against human SGC7901 cells after 48 hrs by MTT assay

HepG2 = experiment: cells; settings: Homo sapiens, HepG2, 48 h
Description: Cytotoxicity against human HepG2 cells after 48 hrs by MTT assay

[1] = Inhibition of Escherichia coli thymidylate synthase by spectrophotometric analysis
Escherichia coli = experiment: Antibacterial activity against Escherichia coli ATCC 25922 assessed as growth inhibition after 24 hrs by MTT assay; assay type: functional; settings: ATCC 25922, 24 h
Staphylococcus aureus = experiment: Antibacterial activity against Staphylococcus aureus ATCC 530 assessed as growth inhibition after 24 hrs by MTT assay; assay type: functional; settings: ATCC 530, 24 h
Pseudomonas aeruginosa = experiment: Antibacterial activity against Pseudomonas aeruginosa ATCC 27853 assessed as growth inhibition after 24 hrs by MTT assay; assay type: functional; settings: ATCC 27853, 24 h
Bacillus subtilis = experiment: Antibacterial activity against Bacillus subtilis […] assessed as growth inhibition after 24 hrs by MTT assay; assay type: functional

| SMILES | pIC50 (MCF7) | pIC50 (SGC-7901) | pIC50 (HepG2) | pIC50 [1] | MIC (Escherichia coli) | MIC (Staphylococcus aureus) | MIC (Pseudomonas aeruginosa) | MIC (Bacillus subtilis) |
| --- | --- | --- | --- | --- | --- | --- | --- | --- |
| CCOc1ccc(-c2nnc(SCCn3c([N+](=O)[O-])cnc3C)o2)cc1 | 4.78 | 4.85 | 5.72 | 5.20 |  |  |  |  |
| Cc1ncc([N+](=O)[O-])n1CCSc1nnc(-c2ccnc(N)c2)o1 | 4.70 | 4.52 | 6.05 | 5.90 | 3.13 µg/mL (≈ 9.01 µM) | 25 µg/mL (≈ 72 µM) | 6.25 µg/mL (≈ 18 µM) | 50 µg/mL (≈ 144 µM) |
| Cc1nc(=O)c2cc(CN(C)c3ccc(C(=O)N[C@@H](CCC(=O)O)C(=O)O)s3)ccc2[nH]1 [RALTITREXED] | 4.90 | 5.06 | 5.89 |  | 25 µg/mL (≈ 54.5 µM) | 50 µg/mL (≈ 109 µM) | 50 µg/mL (≈ 109 µM) | 25 µg/mL (≈ 54.5 µM) |
| Cc1ncc([N+](=O)[O-])n1CCSc1nnc(-c2ccc3c(c2)OCCO3)o1 | 4.84 | 5.04 | 5.39 | 5.62 |  |  |  |  |
| O=c1[nH]cc(F)c(=O)[nH]1 [FLUOROURACIL] | 4.78 | 4.54 | 4.64 |  |  |  |  |  |
| Cc1ncc([N+](=O)[O-])n1CCSc1nnc(-c2ccc([N+](=O)[O-])cc2)o1 | 4.90 | 4.91 | 5.39 |  |  |  |  |  |
| Cc1ncc([N+](=O)[O-])n1CCSc1nnc(-c2ccccc2O)o1 | 4.55 | 4.52 | 4.71 |  |  |  |  |  |
| Cc1ncc([N+](=O)[O-])n1CCSc1nnc(-c2ccc(C(C)(C)C)cc2)o1 | 4.66 | 4.51 | 5.40 | < 5.00 |  |  |  |  |
| Cc1ncc([N+](=O)[O-])n1CCSc1nnc(-c2cnccc2N)o1 | 4.53 | 4.46 | 5.08 | 5.74 | 12.5 µg/mL (≈ 36 µM) | 25 µg/mL (≈ 72 µM) | 12.5 µg/mL (≈ 36 µM) | 50 µg/mL (≈ 144 µM) |
| Cc1ncc([N+](=O)[O-])n1CCSc1nnc(-c2ccccc2F)o1 | 4.69 | 4.47 | 5.43 |  |  |  |  |  |
| Cc1ncc([N+](=O)[O-])n1CCSc1nnc(-c2ccccc2Cl)o1 | 4.65 | 4.49 | 4.81 |  |  |  |  |  |
| Cc1ncc([N+](=O)[O-])n1CCSc1nnc(-c2cccc3ccccc23)o1 | 4.52 | 5.06 | 4.97 |  |  |  |  |  |
| NC[C@H]1O[C@H](O[C@H]2[C@H](O)[C@@H](O[C@H]3O[C@H](CO)[C@@H](O)[C@H](N)[C@H]3O)[C@H](N)C[C@@H]2N)[C@H](O)[C@@H](O)[C@@H]1O [KANAMYCIN] |  |  |  |  | 3.13 µg/mL (≈ 6.46 µM) | 1.56 µg/mL (≈ 3.22 µM) | 3.13 µg/mL (≈ 6.46 µM) | 1.56 µg/mL (≈ 3.22 µM) |
| Cc1ncc([N+](=O)[O-])n1CCSc1nnc(-c2ccccc2)o1 | 4.69 | 4.52 | 4.76 |  |  |  |  |  |
| Cc1ccccc1-c1nnc(SCCn2c([N+](=O)[O-])cnc2C)o1 | 4.80 | 4.49 | 5.29 |  |  |  |  |  |
| COc1cc(-c2nnc(SCCn3c([N+](=O)[O-])cnc3C)o2)cc(OC)c1OC | 4.51 | 4.46 | 4.83 | < 5.00 |  |  |  |  |
| Cc1ncc([N+](=O)[O-])n1CCSc1nnc(-c2ccccc2N)o1 | 4.70 | 4.45 | 5.35 |  |  |  |  |  |
| CCOc1ccccc1-c1nnc(SCCn2c([N+](=O)[O-])cnc2C)o1 | 4.59 | 4.52 | 5.01 |  |  |  |  |  |
| COc1ccc(-c2nnc(SCCn3c([N+](=O)[O-])cnc3C)o2)c(O)c1 | 4.66 | 4.93 | 4.96 |  |  |  |  |  |
| COc1ccc(-c2nnc(SCCn3c([N+](=O)[O-])cnc3C)o2)cc1 | 4.97 | 4.99 | 5.24 |  |  |  |  |  |

| SMILES | pIC50 (MCF7) | pIC50 (SGC-7901) | pIC50 (HepG2) | pIC50 [1] | MIC (Escherichia coli) | MIC (Staphylococcus aureus) | MIC (Pseudomonas aeruginosa) | MIC (Bacillus subtilis) |
| --- | --- | --- | --- | --- | --- | --- | --- | --- |
| Cc1ncc([N+](=O)[O-])n1CCSc1nnc(-c2ccc(F)cc2)o1 | 5.09 | 5.28 | 6.22 | 5.41 |  |  |  |  |
| Cc1ncc([N+](=O)[O-])n1CCSc1nnc(-c2ccnc(Cl)c2)o1 | 4.39 | 4.49 | 4.94 | 5.39 |  |  |  |  |
| Nc1nc2[nH]cc(CCc3ccc(C(=O)N[C@@H](CCC(=O)O)C(=O)O)cc3)c2c(=O)[nH]1 [PEMETREXED] |  |  |  | 4.12 |  |  |  |  |
| Cc1ncc([N+](=O)[O-])n1CCSc1nnc(-c2ccc(N)nc2)o1 | 4.57 | 4.51 | 5.03 |  |  |  |  |  |
| Cc1ncc([N+](=O)[O-])n1CCSc1nnc(-c2cccs2)o1 | 4.59 | 4.51 | 4.69 |  |  |  |  |  |
| Cc1ncc([N+](=O)[O-])n1CCSc1nnc(-c2cccnc2)o1 | 4.54 | 4.50 | 5.02 |  |  |  |  |  |
| Cc1ncc([N+](=O)[O-])n1CCSc1nnc(-c2ccco2)o1 | 4.53 | 4.50 | 4.65 |  |  |  |  |  |
| Cc1ncc([N+](=O)[O-])n1CCSc1nnc(-c2ccccc2[N+](=O)[O-])o1 | 4.74 | 4.52 | 6.15 | 6.33 | 1.56 µg/mL (≈ 4.15 µM) | 1.56 µg/mL (≈ 4.15 µM) | 3.13 µg/mL (≈ 8.32 µM) | 3.13 µg/mL (≈ 8.32 µM) |
| Cc1ncc([N+](=O)[O-])n1CCSc1nnc(-c2ccc(N)cc2)o1 | 4.70 | 4.50 | 5.17 |  |  |  |  |  |
| Cc1ncc([N+](=O)[O-])n1CCSc1nnc(-c2ccncc2)o1 | 4.90 | 4.80 | 4.83 |  |  |  |  |  |
| Cc1ncc([N+](=O)[O-])n1CCSc1nnc(-c2ccc(Cl)cc2)o1 | 4.73 | 4.50 | 5.11 |  |  |  |  |  |
| COc1cc(OC)cc(-c2nnc(SCCn3c([N+](=O)[O-])cnc3C)o2)c1 | 4.89 | 5.02 | 4.98 |  |  |  |  |  |
| Cc1ncc([N+](=O)[O-])n1CCSc1nnc(-c2ccccn2)o1 | 4.41 | 4.52 | 4.69 |  |  |  |  |  |
| COc1ccccc1-c1nnc(SCCn2c([N+](=O)[O-])cnc2C)o1 | 4.97 | 4.52 | 5.00 |  |  |  |  |  |
| Cc1cccc(-c2nnc(SCCn3c([N+](=O)[O-])cnc3C)o2)c1O | 4.70 | 4.44 | 5.06 |  |  |  |  |  |
| Cc1ncc([N+](=O)[O-])n1CCSc1nnc(-c2ccc3ccccc3c2)o1 | 4.47 | 4.51 | 5.00 |  |  |  |  |  |
| Cc1ccc(-c2nnc(SCCn3c([N+](=O)[O-])cnc3C)o2)cc1 | 4.81 | 4.90 | 5.66 | < 5.00 |  |  |  |  |
| Cc1ncc([N+](=O)[O-])n1CCSc1nnc(-c2ccc(C(C)C)cc2)o1 | 4.68 | 4.86 | 5.37 | < 5.00 |  |  |  |  |
| Cc1ccc(-c2nnc(SCCn3c([N+](=O)[O-])cnc3C)o2)c(O)c1 | 4.63 | 4.44 | 4.78 |  |  |  |  |  |
| Cc1ncc([N+](=O)[O-])n1CCSc1nnc(-c2ccc(N(C)C)cc2)o1 | 4.83 | 4.48 | 4.92 |  |  |  |  |  |
